Data taken from patent US20240058311A1, “USE OF SMO INHIBITOR IN PREPARATION OF DRUG FOR PREVENTING, DELAYING OR A[…] STENOSIS OF ART[…]” (JINAN UNIVERSITY, priority 2022, published 2024).

What was measured:
[1] = tested on: IL-6; assay: Western blot of IL-6 in vascular endothelial cells from rat AVF tissue; type: in vivo; conditions: vascular endothelial cells isolated from rat AVF tissue, 1 mg/kg/day i.p. (FIG. 14D, 14E)
Method: (§1) After the experiment was finished, the AVF tissues of the rats were collected and digested with enzymes to separate vascular endothelial cells. The vascular endothelial cells were lysed with the mixture liquid of RIPA lysis buffer and the phosphatase inhibitor and centrifuged to collect the supernatant. The protein concentration was measured, and the protein samples were prepared. Electrophoresis was carried out, and the membrane was transferred at 260 mA for 60 minutes. The transferred PVDF membranes were soaked with TBST buffer containing 5% skimmed milk powder, blocked at room temperature at a rotation rate of 60 rpm for 1 hour, and gently washed with TBST buffer 3 times, each time lasting 8-10 minutes. The corresponding diluents of primary antibodies (SMO, Cascpase3, TNF-α, MCP-1, and IL-6) were added, where the dilution ratio was determined according to the requirements of each antibody, and the PVDF membranes were incubated overnight in a shaker at 4° C. and cleaned with TBST buffer 3 times the next day, each time lasting 8-10 minutes. […] Development: Luminescent liquid A and liquid B were mixed according to the ratio of 1:1, the residual water on the PVDF membranes was gently absorbed with filter papers, the mixed luminescent liquid was uniformly dropped on the PVDF membranes, and the western blot results were analyzed on a gel imager.

[2] = tested on: IL-6; assay: Western blot of IL-6 in high glucose-treated HUVECs; type: cell-based, human; conditions: western blot (FIG. 7D, 7E)
[3] = tested on: MCP-1; assay: Western blot of MCP-1 in high glucose-treated HUVECs; type: cell-based, human; conditions: western blot (FIG. 7D, 7G)
[4] = tested on: PECs; assay: Apoptosis detection in cultured PECs under high glucose; type: cell-based; conditions: high glucose conditions (FIG. 6E)
[5] = tested on: TNF-α; assay: ELISA of TNF-α in peripheral blood plasma of rats; type: in vivo, rat; conditions: 1 mg/kg/day i.p., vs DM group (FIG. 14A)
Method: (§2) Peripheral blood samples of rats were collected, and plasma was separated. The concentration of cytokines (TNF-α, MCP-1, and IL-6) in plasma was determined using an ELISA kit (Jiangsu Enzyme Immune Industrial Co., Ltd., China).
(§3) Weight and blood glucose of rats were measured every week during the experiment, peripheral blood was extracted at specific time points (0, 1, and 14 weeks) for analysis, and AVF tissues were isolated at the end of the experiment for further analysis.

[6] = tested on: IL-6; assay: Immunohistochemistry of IL-6 in vascular tissue around the fistula; type: in vivo, rat; conditions: 1 mg/kg/day i.p., vs DM group (FIG. 13)
Method: (§4) The paraffin-embedded tissue sections were stained with HE. Blood vessel tissue samples were dewaxed and rehydrated, and antigen retrieval and IHC staining were carried out. Tissue sections were blocked at room temperature for at least 1 hour and incubated overnight with antibodies of TNF-α, MCP1, IL-6, and SMO at 4° C. After careful cleaning, tissue sections were detected using a DAB-HRP method and observed with a microscope. Quantitative analysis was carried out according to the percentage of […] cells and the staining intensity.

[7] = tested on: MCP-1; assay: Western blot of MCP-1 in vascular endothelial cells from rat AVF tissue; type: in vivo; conditions: vascular endothelial cells isolated from rat AVF tissue, 1 mg/kg/day i.p. (FIG. 14D, 14G)
Method: as §1

[8] = Body weight of diabetic AVF rats; type: in vivo, rat; conditions: 1 mg/kg/day intraperitoneal, DM+Cyc vs DM group (FIG. 9)
Method: (§5) Male SD rats which were aged 6-8 weeks and weighed 200-250 g were purchased from Beijing Vital River Laboratory Animal Technology Co., Ltd. In order to induce diabetes, the rats fasted overnight. Streptozotocin (STZ) (US, sigma, S0130-1G) (65 mg/kg) was dissolved in the citric acid buffer solution (0.1 M citric acid and 0.1 M sodium citrate) and single injected intraperitoneally into the abdominal cavity of the rats. The control group was administrated with an equal volume of the mediator-sodium citrate buffer (pH 4.5). Three days after the STZ injection, SD rats whose fasting-blood glucose (FPG) was greater than or equal to 300 mg/dL measured by Roche glucometer (Roche, Shanghai, China, LKBIO1500) were considered to have diabetes and used in follow-up experiments (FIG. 10).
(§6) After the construction of the diabetic model. SD rats were used to construct the AVF model. Rats were anesthetized by intraperitoneal injection of chloral hydrate (0.3 mL/100 g) and placed on the operating table during the operation. […]
as §3

[9] = tested on: MCP-1; assay: ELISA of MCP-1 in HUVEC culture supernatant; type: cell-based, human; conditions: HUVECs treated with 10 μM, ELISA (FIG. 8C)
Method: (§7) HUVECs were inoculated into a 6-well plate and treated with glucose of different concentrations. After 48 hours, the supernatant was collected, and the expression of inflammatory cytokines TNF-α, MCP-1. and IL-6 in the supernatant was detected using TNF-α, MCP-1 and IL-6 ELISA kits according to instructions of the kits, respectively.

[10] = tested on: TNF-α; conditions: HUVECs
Method: (§8) The total RNA was extracted from HUVECs by the Trizol method. The cDNA was synthesized using Evo M-MLV RT Premix premix for qPCR. Fluorescence quantitative PCR was carried out using gene-specific primers (Table 1) and SYBR® Green Premix Pro Taq HS qPCR Kit. The relative mRNA expression quantity was calculated by 2^−ΔΔCT method.

[11] = tested on: TNF-α; assay: Immunohistochemistry of TNF-α in vascular tissue around the fistula; type: in vivo, rat; conditions: 1 mg/kg/day i.p., vs DM group (FIG. 13)
Method: as §4

[12] = tested on: HUVECs; assay: Lactate dehydrogenase (LDH) assay in HUVECs under high glucose; type: cell-based, human; conditions: HG, after intervention with Cyc (FIG. 6C)
Method: HUVECs were inoculated in a 6-well plate (1×10^6 cells/well) and treated in different glucose conditions. After 48 hours of culture, the supernatant was collected, and the LDH activity was analyzed using an LDH cytotoxicity assay kit.

[13] = tested on: TNF-α; assay: Western blot of TNF-α in vascular endothelial cells from rat AVF tissue; type: in vivo; conditions: vascular endothelial cells isolated from rat AVF tissue, 1 mg/kg/day i.p. (FIG. 14D, 14F)
Method: as §1

[14] = tested on: IL-6; conditions: HUVECs
Method: as §8

[15] = Blood glucose level of diabetic AVF rats; type: in vivo, rat; conditions: 1 mg/kg/day intraperitoneal, DM+Cyc vs DM group (FIG. 10)
Method: as §5, §6, §3

[16] = tested on: SMO; assay: Immunohistochemistry of SMO in vascular tissue around the fistula; type: in vivo, rat; conditions: 1 mg/kg/day i.p., vs DM group (FIG. 13)
Method: as §4

[17] = tested on: IL-6; assay: ELISA of IL-6 in HUVEC culture supernatant; type: cell-based, human; conditions: HUVECs treated with 10 μM, ELISA (FIG. 8A)
Method: as §7

[18] = tested on: TNF-α; assay: Western blot of TNF-α in high glucose-treated HUVECs; type: cell-based, human; conditions: western blot (FIG. 7D, 7F)
[19] = tested on: Cleaved caspase 3; assay: Immunohistochemistry of Cleaved caspase 3 in vascular tissue around the fistula; type: in vivo, rat; conditions: 1 mg/kg/day i.p., vs DM group (FIG. 13)
[20] = tested on: IL-6; assay: ELISA of IL-6 in peripheral blood plasma of rats; type: in vivo, rat; conditions: 1 mg/kg/day i.p., vs DM group (FIG. 14C)
Method: as §2, §3

[21] = tested on: SMO; assay: Western blot of SMO in vascular endothelial cells from rat AVF tissue; type: in vivo; conditions: vascular endothelial cells isolated from rat AVF tissue, 1 mg/kg/day i.p. (FIG. 14D, 14H)
Method: as §1

[22] = tested on: MCP-1; conditions: HUVECs
Method: as §8

[23] = tested on: MCP-1; assay: Immunohistochemistry of MCP-1 in vascular tissue around the fistula; type: in vivo, rat; conditions: 1 mg/kg/day i.p., vs DM group (FIG. 13)
Method: as §4

[24] = tested on: HUVECs; assay: Apoptosis detection (AnnexinV-FITC/PI) in HUVECs under high glucose; type: cell-based, human; conditions: high glucose conditions (FIG. 6D)
Method: HUVECs were inoculated into a 6-well plate and treated with different concentrations of glucose. After 48 hours of culture, the cells were collected, washed twice with cold PBS, and suspended to 1×10^6 cells/mL with a labeling buffer (1×), and 5 μL of AnnexinV-FITC and 5 μL of propidium iodide (PI) were added. The cells were mixed evenly and incubated at room temperature away from light for about 15 minutes. 300 μL of labeling buffer was added to each tube, and samples were loaded within 1 hour. Annexin-V and PI were used to label early and late apoptotic cells, respectively. […] PI is a kind of nucleic acid dye, cannot penetrate the whole cell membrane, but can penetrate the cell membrane of cells in the middle and late apoptosis and dead cells to stain the nucleus.

[25] = tested on: diabetic AVF rats; assay: Ultrasonic examination of AVF in diabetic AVF rats; type: in vivo, rat; conditions: 1 mg/kg/day i.p.
Method: as §5
After the construction of the diabetic model. SD rats were used to construct the AVF model. Rats were anesthetized by intraperitoneal injection of chloral hydrate (0.3 mL/100 g) and placed on the operating table during the operation. The iliac vascular area was exposed by cutting a 3 cm incision along the left inguinal fold and retracting abdominal muscle tissue and other soft tissue. The operation was carried out under a microscope, and the iliac artery and vein were separated from the surrounding fascia and nerves.

[26] = tested on: TNF-α; assay: ELISA of TNF-α in HUVEC culture supernatant; type: cell-based, human; conditions: HUVECs treated with 10 μM, ELISA (FIG. 8B)
Method: as §7

[27] = tested on: diabetic AVF rats; assay: Hematoxylin-eosin staining of vascular tissue at AVF anastomosis; type: in vivo, rat; conditions: HE staining at AVF anastomosis, 1 mg/kg/day i.p., vs DM group (FIG. 12)
Method: as §4, §5
After the construction of the diabetic model. […]

[28] = tested on: SMO; conditions: HUVECs, high glucose; 10 μM; compared with Vis and Gla at the same dosage (FIG. 5A)
Method: as §8

[29] = tested on: MCP-1; assay: ELISA of MCP-1 in peripheral blood plasma of rats; type: in vivo, rat; conditions: 1 mg/kg/day i.p., vs DM group (FIG. 14B)
Method: as §2, §3

CC1=C2C[C@H]3[C@@H](CC=C4C[C@@H](O)CC[C@@]43C)[C@@H]2CC[C@]12O[C@@H]1C[C@H](C)CN[C@H]1[C@H]2C [Cyc, Cyclopamine]
expression level of IL-6 (western blot) [1]: significantly reduced
expression of IL-6 at protein level [2]: inhibit
expression of MCP-1 at protein level [3]: inhibit
apoptosis of cultured PECs [4]: significantly reduced
TNF-α in plasma [5]: significantly reduced
expression level of IL-6 (immunohistochemistry) [6]: significantly inhibited
expression level of MCP-1 (western blot) [7]: significantly reduced
body weight [8]: remained stable over time
level of MCP-1 in cell culture supernatant [9]: decreased
expression of TNF-α at mRNA level ([10]; glucose 5.5-40 mM (FIG. 7B)): inhibit
inhibiting the expression of TNF-α ([10]; high glucose, 10 μM, compared with Vis and Gla at the same dosage (FIG. 5D)): best effect
expression level of TNF-α (immunohistochemistry) [11]: significantly inhibited
LDH in HUVECs [12]: reduced
expression level of TNF-α (western blot) [13]: significantly reduced
expression of IL-6 at mRNA level ([14]; glucose 5.5-40 mM (FIG. 7A)): inhibit
inhibiting the expression of IL-6 ([14]; high glucose, 10 μM, compared with Vis and Gla at the same dosage (FIG. 5C)): best effect
blood glucose level [15]: lower than that of the DM group
expression level of SMO (immunohistochemistry) [16]: significantly inhibited
level of IL-6 in cell culture supernatant [17]: decreased
expression of TNF-α at protein level [18]: inhibit
expression level of Cleaved caspase 3 (immunohistochemistry) [19]: significantly inhibited
IL-6 in plasma [20]: significantly reduced
expression level of SMO (western blot) [21]: significantly reduced
expression of MCP-1 at mRNA level ([22]; glucose 5.5-40 mM (FIG. 7C)): inhibit
inhibiting the expression of MCP-1 ([22]; high glucose, 10 μM, compared with Vis and Gla at the same dosage (FIG. 5E)): best effect
expression level of MCP-1 (immunohistochemistry) [23]: significantly inhibited
apoptosis of HUVECs [24]: significantly reduced
blood flow ([25]; color Doppler ultrasound near AVF anastomotic stoma, DM+Cyc vs untreated DM group (FIG. 11A)): faster
diameter of blood vessels in the fistula ([25]; ultrasound at AVF anastomosis, DM+Cyc vs untreated group (FIG. 11B)): increased significantly
level of TNF-α in cell culture supernatant [26]: decreased
intima of blood vessels [27]: improved
lumen of blood vessels [27]: significantly enlarged
inhibiting the expression of SMO [28]: best effect
MCP-1 in plasma [29]: significantly reduced
